Data taken from paper PMC7839234 (FASEB journal : official publication of the Federation of …, 2020).

How the values were obtained:
Assay type in all cases: cell-based
SLC22A15 [1] = target: T1, SLC22A15 (Homo sapiens, UniProt Q8IZD6)
SLC22A15 [2] = target: T1, SLC22A15; assay: radiolabelled uptake in transfected HEK293 Flp-In cells
SLC22A4 = target: T2, SLC22A4 (Homo sapiens, UniProt Q9H015); assay: as above
T2 sequence (Q9H015 1-551): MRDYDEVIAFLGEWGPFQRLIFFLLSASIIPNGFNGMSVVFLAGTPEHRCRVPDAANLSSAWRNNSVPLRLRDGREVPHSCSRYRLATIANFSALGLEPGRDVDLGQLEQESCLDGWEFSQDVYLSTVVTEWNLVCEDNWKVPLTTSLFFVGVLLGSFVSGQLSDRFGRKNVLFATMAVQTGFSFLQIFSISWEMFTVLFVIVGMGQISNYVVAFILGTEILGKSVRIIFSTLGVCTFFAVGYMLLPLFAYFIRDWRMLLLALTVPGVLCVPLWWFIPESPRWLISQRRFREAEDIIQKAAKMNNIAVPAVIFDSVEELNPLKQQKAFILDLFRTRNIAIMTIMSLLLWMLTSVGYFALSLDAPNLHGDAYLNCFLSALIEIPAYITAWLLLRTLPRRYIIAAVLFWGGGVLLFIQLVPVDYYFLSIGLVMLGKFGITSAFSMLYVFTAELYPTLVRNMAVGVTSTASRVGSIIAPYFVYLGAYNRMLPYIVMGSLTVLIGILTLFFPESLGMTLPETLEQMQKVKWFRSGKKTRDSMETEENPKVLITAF

T1 sequence (Q8IZD6 whole entry): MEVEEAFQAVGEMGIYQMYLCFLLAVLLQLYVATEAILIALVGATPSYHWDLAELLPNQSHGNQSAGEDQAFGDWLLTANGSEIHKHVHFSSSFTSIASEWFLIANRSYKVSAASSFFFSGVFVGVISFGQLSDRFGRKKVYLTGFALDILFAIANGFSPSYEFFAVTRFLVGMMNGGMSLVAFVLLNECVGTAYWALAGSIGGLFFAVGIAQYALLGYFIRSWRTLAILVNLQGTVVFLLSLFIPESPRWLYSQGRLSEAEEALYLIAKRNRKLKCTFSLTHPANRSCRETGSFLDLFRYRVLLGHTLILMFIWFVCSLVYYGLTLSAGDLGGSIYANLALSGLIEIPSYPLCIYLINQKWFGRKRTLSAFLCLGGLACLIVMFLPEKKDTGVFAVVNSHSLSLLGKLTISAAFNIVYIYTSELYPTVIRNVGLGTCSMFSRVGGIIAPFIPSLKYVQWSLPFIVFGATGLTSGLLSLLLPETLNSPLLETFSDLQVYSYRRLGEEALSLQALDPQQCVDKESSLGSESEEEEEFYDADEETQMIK

## O=S(=O)(O)CCN1CCN(CCO)CC1 [HEPES, 4-(2-hydroxyethyl)-1-piperazineethanesulfonic acid]
SLC22A15 [1]
  IC50: 5.8 ± 1.4 mM

## C[N+](C)(C)CC(=O)O [betaine]
SLC22A15 [2]
  radiolabelled uptake in transfected HEK293 Flp-In cells: highest fold-uptake over empty vector were the zwitterions: ergothioneine, carnosine and betaine

## C[N+](C)(C)[C@@H](Cc1c[nH]c(=S)[nH]1)C(=O)[O-] [ergothioneine]
SLC22A4
  radiolabelled uptake in transfected HEK293 Flp-In cells: only SLC22A4 and SLC22A15 showed significant uptake of ergothioneine over EV cells (Fig. 3B)
